Experimental data taken from patent publication US10233447B2, “Self-cleaving ribozymes and uses thereof” (The Children s Medical Center Corporation, priority 2003, dated 2019).
Values joined by “and” are separate entries in the source; they are usually repeats but may differ in a detail not shown here. Identical values can stand only once. “Also recorded” adds a separate entry of the source.

Key:
N79 rz = experiment: microbe, parasite or virus in culture; assay type: cell-based, Schistosoma mansoni; conditions: for EC50 / Foldmax / maximal fold induction: inhibition of ribozyme activity in cells; for maximal fold induction: read-out: Foldmax; for luciferase activity, emission: untreated 1,555, background 121; for luciferase protein expression / induced gene expression: double N79 rz
double functional N79 rz = experiment: In vivo induction of luciferase in retina injected with AAV carrying double N79 rz, bioluminescent imaging; parameters: species or system nude mice; conditions: for luciferase expression in retina: mice with AAV carrying double functional N79, drug pellet, day 2
Procedure: FIG. 4 show effective control of gene expression in vivo using rz-based gene regulation system. […] AAV injection was done 3 weeks prior to the first imaging day (day 0). Drug-releasing pellets were implanted subcutaneously in the dorsal neck immediately after the first imaging, and released the drug over 7 days. The toyocamycin pellet contains 10 μg of drug; adenosine pellet 50 μg.
Having documented the ability of the rz-based regulation system to function in mammalian cell culture, a final important issue to be addressed was whether the intracellular machinery and ‘environment’ necessary for self-cleavage was operable in primary cells in vivo. […] After 21 days, the injected animals were imaged for luciferase gene expression using the Xenogen IVIS imager, which provides a quantitative measure ofluciferase expression based on single-photon detection (Contag, et al., 1998, Nat Med 4, 245-7). […] Two days later, all animals were then imaged for luciferase expression. […] Quantification of the photon output indicated gene expression was ‘induced’ 39, 185, and 191-fold in the three mice infected with virus carrying the functional rzs and treated with toyocamycin. […] While the retina may be particularly accessible to ‘inducer’ due to its extensive vascularization, Applicants have shown in preliminary experiments that gene regulation can be accomplished at a number of other anatomical sites in vivo (e.g., muscle and ear).
Prior to imaging, the anesthetized mice were injected with 150 μl of luciferin (30 mg/ml) and the pupils were moistened and dilated with 1% tropicamide. A series of bioluminescent images were taken for up to 30 minutes using the Xenogen IVIS imager. Photon output was quantified at the plateau of the time course using the LivingImage software. Induction in fold was calculated based on the photon output in the retina before and after drug treatment, and was normalized to the photon output from the leg muscles. Adenosine was purchased from Innovative Research of America.

293 cells = experiment: Transient transfection LacZ reporter assay of ribozyme self-cleavage; assay type: cell-based; conditions: for Fold (suppression in reporter gene expression relative to the vector with inactive rz): pMD LacZ vector, functional vs inactive rz, fold=1 means no effect
Text: The approach is critically dependent upon both the ability of a specific self-cleaving ribozyme (rz) to effect the highly efficient cleavage (>99%) of an mRNA molecule into which it is embedded, and the availability of a small molecule capable of efficiently inhibiting self-cleavage of the cis-acting rz within an intracellular milieu. A first step in our studies was to identify candidate rz sequences capable of efficient cleavage in mammalian cells in the context of an ‘expression’ vector. For this purpose, Applicantsmade use of a transient transfection assay involving a standard mammalian expression vector (Ory, et al., 1996, Proc Natl Acad Sci USA 93, 11400-6) which encodes a LacZ reporter (FIG. 1b). […] After transfection of 293 cells with these vectors, protein extracts were prepared from cells and the β-gal level quantified.
1.5 μl Fugene-6 (Roche, Basel, Switzerland) was diluted in 100 μl OPTIMEM (Gibco, Carlsbad, Calif.) and incubated for 5 minutes at room temperature. This solution was added dropwise to 0.45 μg plasmid DNA and incubated for 15 minutes. The plasmid DNA contains either a wildtype or a mutant ribozyme and a Lacz reporter gene. The DNA mixture was then added dropwise to 3×10^5 HEK 293 cells (plated the previous day in a 35 mm dish). Cells were harvested for β-galactosidase assay 24 hours following transfection.
Plasmids carrying different ribozymes were transfected into HEK293T cells and lysed 24 h later. The cell extracts were incubated with ONPG, and the amount of B-galactosidase in cell extracts was measured by quantifying the processed ONPG using a luminometer.
Cleaving activity was determined by comparing the level of −galactosidase measured in the test sample to a control comprising a point mutation (A-+G) at position 14 which attenuates ribozyme activity. Briefly, transfected HEK293 cells were lysed with a lysis solution and the extracts of cells were separated from cell debris. The extracts were then incubated with ONPG, a chromogenic substrate of β-galactosidase. […] The intensity of yellow light emission was measured with a luminometer (Miller J., Experiments in Molecular Genetics, Cold Spring Harbor Laboratory, Cold Spring Harbor, N.Y. (1972)).

[1] = system: self-cleavage of full length ribozymes; experiment: Catalytic rate measurement of in vitro transcribed ribozymes; assay type: biochemical; conditions: 50 mM Tris-HCl pH7.5, 23° C.
Procedure: Ribozymes were generated by in vitro transcription in the presence of 50 uM blocking antisense oligos. Full length ribozymes were purified and the cleavage rate determined in 50 mM Tris-HCI, pH7.5 at 23° C. Kobs was calculated according to the equation F1=F0+F∞(l−e^kt).

[2] = system: a variety of other commonly used cell lines; experiment: Transfection of N79 rz vector into other cell lines; assay type: cell-based; conditions: after transfection
Text: (a) and (b) N79 functioned efficiently in a variety of cell types. Numbers are the measurements of β-gal expressed. (c) N79 functioned efficiently at some but not all positions within the vector. […] The ±signs indicate standard deviation from mean of at least four independent measurements.
In addition, the N79 rz was able to function efficiently when placed within other transcriptional units which made use of different promoters and a different reporter gene (eGFP) (FIG. 2b). As Applicants had observed in the primary screen of different rz motifs for activity in mammalian cells, N79 was able to function when placed in several, but not all locations of the pMD transcriptional unit, albeit at different efficiencies (FIG. 2c). Importantly, placement of two rz sequences in tandem, in some cases (e.g., E position) led to a dramatic suppression of reporter gene expression (FIG. 2c).

[3] = rz inserted at position A of pMD vector

## Nc1ncnc2c1ccn2[C@@H]1O[C@@H]2COP(=O)(O)O[C@H]2[C@H]1O [Tubercidin-cyclic monophosphate]
N79 rz
  EC50: 34 µM
  Foldmax: 35 fold

## Nc1ncnc2c1ccn2[C@@H]1O[C@H](CO)[C@@H](O)[C@H]1O [Tubercidin]
N79 rz; Schistosoma mansoni
  EC50: 2.5 µM
  maximal fold induction: 58

## Nc1ncnc2c1ccn2[C@@H]1O[C@H](COP(=O)(O)OP(=O)(O)OP(=O)(O)O)[C@@H](O)[C@H]1O [Tubercidin-triphosphate]
N79 rz; Schistosoma mansoni
  EC50: 2 µM
  maximal fold induction: 35

## O=c1[nH]c(=O)n([C@@H]2O[C@H](CO)[C@@H](O)[C@H]2O)cc1Br [5-BromoUridine]
N79 rz; Schistosoma mansoni
  EC50: 267 µM
  maximal fold induction: 16

## Nc1ncnc2c1nnn2[C@@H]1O[C@H](CO)[C@@H](O)[C@H]1O [8-Azaadenosine]
N79 rz; Schistosoma mansoni
  EC50: 4 µM
  maximal fold induction: 45

## N#Cc1cn([C@@H]2O[C@H](CO)[C@@H](O)[C@H]2O)c2ncnc(N)c12 [Toyocamycin]
N79 rz; 0.5 μM, 24 hours
  luciferase activity, emission: 66,774 photons per second per 1000 cells
N79 rz; 1 μM, 24 hours
  luciferase activity, emission: 242,546 photons per second per 1000 cells
N79 rz; 1.5 μM, 24 hours
  luciferase activity, emission: 377,655 photons per second per 1000 cells
N79 rz; Schistosoma mansoni
  EC50: 0.4 µM
  maximal fold induction: 365
N79 rz; northern blot, nucleus and cytoplasm, 24 hours of treatment
  amount of luciferase mRNA: increased to a level comparable to that of cells carrying inactive rz
N79 rz; stable cell line, 24 hours
  concentrations at which toxic effects were observed: higher than 1.5 μM
N79 rz; stable cell line
  luciferase protein expression / induced gene expression: dramatic increase
Double functional N79 rz; animal showing 191-fold induction
  induced gene expression level relative to virus carrying inactive rzs: ≤ 40%
Double functional N79 rz; individual mice, functional rzs, 10 μg pellet subcutaneous, day 2, normalized to leg muscles
  gene expression 'induced', photon output in retina: 39 fold and 185 fold and 191 fold
Double functional N79 rz
  luciferase expression in retina: readily detectable expression; also recorded: strong induction

## Nc1ncnc2c1ncn2[C@@H]1O[C@H](CO)[C@@H](O)[C@H]1O [adenosine]
N79 rz
  ability to inhibit rz self-cleavage: no ability
Double functional N79 rz
  luciferase expression in retina: little if any gene expression

## NC(=O)c1cn([C@@H]2O[C@H](CO)[C@@H](O)[C@H]2O)c2ncnc(N)c12 [Sangivamycin]
N79 rz; Schistosoma mansoni
  EC50: 1 µM
  maximal fold induction: 38

## O=c1[nH]cc(F)c(=O)[nH]1 [5-FluoroUracil]
N79 rz; Schistosoma mansoni
  EC50: 200 µM
  maximal fold induction: 377
N79 rz; stable cell line
  luciferase protein expression / induced gene expression: induced gene expression

## CN(C)c1ccc2cc3ccc(N(C)C)cc3nc2c1 [Acridine orange]
N79 rz; Schistosoma mansoni
  EC50: 7 µM
  maximal fold induction: 4

## OC[C@H]1O[C@@H](n2cnc3cncnc32)[C@H](O)[C@@H]1O [Nebularine]
N79 rz; Schistosoma mansoni
  EC50: 10 µM
  maximal fold induction: 8

## CC[n+]1c(-c2ccccc2)c2cc(N)ccc2c2ccc(N)cc21 [Homidium bromide]
N79 rz; Schistosoma mansoni
  EC50: 2 µM
  maximal fold induction: 8

## Nc1ncnc2c1ccn2[C@@H]1O[C@H](COP(=O)(O)O)[C@@H](O)[C@H]1O [Tubercidin-monophosphate]
N79 rz
  EC50: 2 µM
  Foldmax: 39 fold

## N94: N79 with shortened stem I, SEQ ID NO: 8 (CCAGCUGAUGAGUCCCAAAUAGGACGAAACGCGCUUCGGUGCGUCCUGG; expressed or natural sequence)
293 cells; rz at position E of pMD vector
  cleavage activity, fold difference between functional and inactive rz: vastly reduced

## O=c1[nH]c(=O)n([C@@H]2O[C@H](CO)[C@@H](O)[C@H]2O)cc1F [5-FluoroUridine]
N79 rz; Schistosoma mansoni
  EC50: 5.9 µM
  maximal fold induction: 120
N79 rz; stable cell line
  luciferase protein expression / induced gene expression: induced gene expression

B1: N79: N73 ribozyme transferred to position E of the vector, SEQ ID NO: 5 (nucleic acid)
chain: CUGAGAUGCAGGUACAUCCAGCUGAUGAGUCCCAAAUAGGACGAAACGCGCUUCGGUGCGUCCUGGAUUCCACUGCUAUCCAC
293 cells; rz at position E of pMD vector
  cleavage activity, fold difference between functional and inactive rz: 225 fold
[1]; 0.5 mM Mg++
  Kobs: 0.84 ^−min
[1]; 10 mM Mg++
  Kobs: 0.84 ^−min
[2]
  B-gal expression: dramatically reduced

B2: N99: N79 with changes in stem I near the core, SEQ ID NO: 6 (nucleic acid)
chain: CUGAGAUGCAGGUACAUCCCACUGAUGAGUCCCAAAUAGGACGAAACGCGCUUCGGUGCGUCUGGGAUUCCACUGCUAUCCAC
modifications: expressed or natural sequence
293 cells; rz at position E of pMD vector
  cleavage activity, fold difference between functional and inactive rz: further enhanced activity

B3: N117: N79 variant changed near the restriction insertion site, SEQ ID NO: 6 (nucleic acid)
chain: CUGAGAUGCAGGUACAUCCCACUGAUGAGUCCCAAAUAGGACGAAACGCGCUUCGGUGCGUCUGGGAUUCCACUGCUAUCCAC
modifications: expressed or natural sequence
293 cells; rz at position E of pMD vector
  cleavage activity, fold difference between functional and inactive rz: further enhanced activity

B4: Schisto hammerhead: original hammerhead Sml rz of Schistosoma mansoni lacking loop III, SEQ ID NO: 2 (nucleic acid)
chain: CUGAGAUGCAGGUACAUCCAGCUGACGAGUCCCAAAUAGGACGAAACGCGCGUCCUGGAUUCCACUGCUAUCCAC
modifications: expressed or natural sequence
293 cells
  Fold (suppression in reporter gene expression relative to the vector with inactive rz): 1 fold
293 cells; [3]
  cleavage activity, fold difference between functional and inactive rz: no activity

B5: Cricket hammerhead: hammerhead Pst-3 rz from the Dolichopoda cave cricket, SEQ ID NO: 1 (nucleic acid)
chain: AUGUGUGUUCCCUCUGCCCCGCUGAUGAGGUCGGGGAGACCGAAAGGGUCAACUCUACGGGGCUAUUACAUGCAAU
modifications: expressed or natural sequence
293 cells
  Fold (suppression in reporter gene expression relative to the vector with inactive rz): 13 fold
293 cells; [3]
  cleavage activity, fold difference between functional and inactive rz: 13 fold

B6: TRSV hammerhead: naturally occurring ribozyme, SEQ ID NO: 53 (nucleic acid)
chain: AUACCCUGUCACCGGAUGUGCUUUCCGGUCUGAUGAGUCCGUGAGGACGAAACAGGACUGUC
modifications: expressed or natural sequence
293 cells
  Fold (suppression in reporter gene expression relative to the vector with inactive rz): 1 fold

B7: N27: Sml with tetraloop 5′-UUCG-3′ grafted onto extended stem III, SEQ ID NO: 3 (nucleic acid)
chain: CUGAGAUGCAGGUACAUCCAGCUGACGAGUCCCAAAUAGGACGAAACGCCUUCGGGCGUCCUGGAUUCCACUGCUAUCCAC
modifications: expressed or natural sequence
293 cells
  Fold (suppression in reporter gene expression relative to the vector with inactive rz): 19 fold
293 cells; [3]
  cleavage activity, fold difference between functional and inactive rz: 19 fold

B8: N93: N79 with shortened stem I, SEQ ID NO: 7 (nucleic acid)
chain: AGGUACAUCCAGCUGAUGAGUCCCAAAUAGGACGAAACGCGCUUCGGUGCGUCCUGGAUUCCACU
modifications: expressed or natural sequence
293 cells; rz at position E of pMD vector
  cleavage activity, fold difference between functional and inactive rz: vastly reduced
